US10479780B2, “Aminopyrazole derivatives” (Chugai Seiyaku Kabushiki Kaisha, priority 2015, dated 2019)

Key:
Assay type in all cases: biochemical
human Yes1 enzyme = biological target: T1, human Yes1 enzyme (Homo sapiens, UniProt P07947); assay: Yes1 enzyme inhibitory activity (time-resolved fluorometry, biotinylated peptide phosphorylation); details: biotinylated peptide phosphorylation, read-out: YES_IC50
T1 construct: made in house
Method in brief: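 Inhibition was expressed against a compound-free control to give IC50, using TR-FRET read-out (Eu-cryptate anti-pTyr antibody, streptavidin-XL665).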

human Src enzyme = biological target: T2, human Src enzyme (Homo sapiens, UniProt P12931); assay: Src enzyme inhibitory activity (time-resolved fluorometry, biotinylated peptide phosphorylation); details: biotinylated peptide phosphorylation, read-out: SRC_IC50
T2 construct: purchased Carna Biosciences, Inc. 08-173
T2 sequence (P12931 whole entry): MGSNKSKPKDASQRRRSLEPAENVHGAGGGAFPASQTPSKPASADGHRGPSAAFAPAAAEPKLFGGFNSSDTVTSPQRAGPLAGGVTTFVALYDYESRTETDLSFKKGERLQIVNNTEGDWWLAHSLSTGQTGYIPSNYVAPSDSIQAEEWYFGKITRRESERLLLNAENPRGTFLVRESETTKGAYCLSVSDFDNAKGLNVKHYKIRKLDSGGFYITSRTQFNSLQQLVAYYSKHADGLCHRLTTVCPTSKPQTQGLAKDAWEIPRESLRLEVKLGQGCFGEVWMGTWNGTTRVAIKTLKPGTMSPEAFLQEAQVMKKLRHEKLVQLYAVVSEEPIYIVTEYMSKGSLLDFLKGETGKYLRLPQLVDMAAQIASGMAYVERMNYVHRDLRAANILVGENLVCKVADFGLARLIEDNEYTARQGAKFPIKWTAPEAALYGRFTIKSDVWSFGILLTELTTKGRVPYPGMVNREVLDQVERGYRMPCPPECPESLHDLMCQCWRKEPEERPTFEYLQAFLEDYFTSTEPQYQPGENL
Method in brief: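 Compounds were tested for blocking tyrosine phosphorylation of a biotinylated peptide substrate by recombinant human Src. Phosphorylated product was quantified by time-resolved fluorometry using europium cryptate and XL665 conjugates, and IC50 was calculated against the compound-free control.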

human Lck enzyme = biological target: T3, human Lck enzyme (Homo sapiens, UniProt P06239); assay: Lck enzyme inhibitory activity (time-resolved fluorometry, biotinylated peptide phosphorylation); details: biotinylated peptide phosphorylation, read-out: LCK_IC50
T3 construct: purchased Carna Biosciences, Inc. 08-170
T3 sequence (P06239 whole entry): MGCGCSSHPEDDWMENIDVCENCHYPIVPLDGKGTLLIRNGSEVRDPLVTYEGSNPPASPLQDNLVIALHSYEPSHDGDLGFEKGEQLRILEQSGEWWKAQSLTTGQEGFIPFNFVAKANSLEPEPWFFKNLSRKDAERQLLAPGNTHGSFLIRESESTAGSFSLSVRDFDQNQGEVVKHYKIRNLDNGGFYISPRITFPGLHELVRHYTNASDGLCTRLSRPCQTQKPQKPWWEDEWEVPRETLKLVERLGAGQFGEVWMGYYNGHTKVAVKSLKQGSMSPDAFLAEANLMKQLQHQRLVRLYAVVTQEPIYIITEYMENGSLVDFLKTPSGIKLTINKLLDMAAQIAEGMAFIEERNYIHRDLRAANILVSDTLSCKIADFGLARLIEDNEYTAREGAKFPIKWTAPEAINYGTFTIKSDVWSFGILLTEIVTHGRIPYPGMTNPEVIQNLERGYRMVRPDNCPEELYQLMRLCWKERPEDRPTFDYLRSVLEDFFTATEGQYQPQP
Method in brief: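 Readout pairs a europium cryptate-labelled anti-phosphotyrosine antibody with XL665-streptavidin, measured by time-resolved fluorescence. IC50 derived from percent inhibition against untreated controls.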

T1 sequence (P07947 whole entry): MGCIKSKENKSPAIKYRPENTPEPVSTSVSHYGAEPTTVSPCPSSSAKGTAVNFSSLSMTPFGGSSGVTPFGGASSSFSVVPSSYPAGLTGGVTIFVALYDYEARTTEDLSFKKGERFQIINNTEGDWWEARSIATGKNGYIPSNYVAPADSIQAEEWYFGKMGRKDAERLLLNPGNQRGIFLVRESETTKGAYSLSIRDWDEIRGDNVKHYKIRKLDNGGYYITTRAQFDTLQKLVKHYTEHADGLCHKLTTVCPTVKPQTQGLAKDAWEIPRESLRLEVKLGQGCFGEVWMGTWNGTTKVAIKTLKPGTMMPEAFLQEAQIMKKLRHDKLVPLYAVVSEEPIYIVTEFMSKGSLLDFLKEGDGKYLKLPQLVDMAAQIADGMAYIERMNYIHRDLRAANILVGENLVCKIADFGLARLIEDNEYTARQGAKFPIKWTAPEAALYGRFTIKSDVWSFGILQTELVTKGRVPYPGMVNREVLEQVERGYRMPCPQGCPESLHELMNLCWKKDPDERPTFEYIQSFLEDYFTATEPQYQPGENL

Row | Compound | IC50 (human Yes1 enzyme) [nM] | IC50 (human Src enzyme) [nM] | IC50 (human Lck enzyme) [nM]
1 | Cc1cc2cc(C(=O)c3cnn(-c4cnc(Oc5ccccc5F)cc4C)c3N)[nH]c2cc1NS(=O)(=O)c1cc(F)cc(C#N)c1 [Example 5-1-497, N-[2-[5-amino-1-[6-(2-fluorophenoxy)-4-methylpyridin-3-yl]pyrazole-4-carbonyl]-5-methyl-1H-indol-6-yl]-3-cyano-5-fluorobenzenesulfonamide] | 4.7 | 660 | 170
2 | Cc1cc2cc(C(=O)c3cnn(-c4cnc(Oc5ccccc5F)cc4C)c3N)[nH]c2cc1NS(=O)(=O)c1cc(Cl)cc(C#N)c1 [Example 5-1-498, N-[2-[5-amino-1-[6-(2-fluorophenoxy)-4-methylpyridin-3-yl]pyrazole-4-carbonyl]-5-methyl-1H-indol-6-yl]-3-chloro-5-cyanobenzenesulfonamide] | 8.7 | 1600 | 420
3 | Cc1cc2cc(C(=O)c3cnn(-c4cnc(Oc5ccccc5F)cc4C)c3N)[nH]c2cc1NS(=O)(=O)c1cc(C#N)cc(C(F)(F)F)c1 [Example 5-1-499, N-[2-[5-amino-1-[6-(2-fluorophenoxy)-4-methylpyridin-3-yl]pyrazole-4-carbonyl]-5-methyl-1H-indol-6-yl]-3-cyano-5-(trifluoromethyl)benzenesulfonamide] | 16 | 1800 | 550
4 | Cc1cc2cc(C(=O)c3cnn(-c4cnc(Oc5ccccc5F)cc4C)c3N)[nH]c2cc1NS(=O)(=O)c1cccc(F)c1 [Example 5-1-500, N-[2-[5-amino-1-[6-(2-fluorophenoxy)-4-methylpyridin-3-yl]pyrazole-4-carbonyl]-5-methyl-1H-indol-6-yl]-3-fluorobenzenesulfonamide] | 5.7 | 750 | 200
5 | Cc1cc2cc(C(=O)c3cnn(-c4cnc(Oc5ccccc5F)cc4C)c3N)[nH]c2cc1NS(=O)(=O)c1c(F)cc(F)cc1F [Example 5-1-501, N-[2-[5-amino-1-[6-(2-fluorophenoxy)-4-methylpyridin-3-yl]pyrazole-4-carbonyl]-5-methyl-1H-indol-6-yl]-2,4,6-trifluorobenzenesulfonamide] | 4.8 | 570 | 190
6 | Cc1cc2cc(C(=O)c3cnn(-c4cnc(Oc5ccccc5F)cc4C)c3N)[nH]c2cc1NS(=O)(=O)c1cccc(F)n1 [Example 5-1-502, N-[2-[5-amino-1-[6-(2-fluorophenoxy)-4-methylpyridin-3-yl]pyrazole-4-carbonyl]-5-methyl-1H-indol-6-yl]-6-fluoropyridine-2-sulfonamide] | 2.3 | 350 | 110
7 | COc1ccccc1-c1cc2[nH]c(C(=O)c3cnn(-c4cnc(Oc5c(F)cccc5F)cc4C)c3N)cc2cc1OC1CCN(C2CCCC2)CC1 [Example 5-1-503, [5-amino-1-[6-(2,6-difluorophenoxy)-4-methylpyridin-3-yl]pyrazol-4-yl]-[5-(1-cyclopentylpiperidin-4-yl)oxy-6-(2-methoxyphenyl)-1H-indol-2-yl]methanone] | 1.9 | 87 | 15
8 | Cc1cnc(F)c(S(=O)(=O)Nc2cc3[nH]c(C(=O)c4cnn(-c5cnc(Oc6ccccc6F)cc5C)c4N)cc3cc2C)c1 [Example 5-1-504, N-[2-[5-amino-1-[6-(2-fluorophenoxy)-4-methylpyridin-3-yl]pyrazole-4-carbonyl]-5-methyl-1H-indol-6-yl]-2-fluoro-5-methylpyridine-3-sulfonamide] | 3.6 | 630 | 140
9 | Cc1cc2cc(C(=O)c3cnn(-c4cnc(Oc5ccccc5F)cc4C)c3N)[nH]c2cc1NS(=O)(=O)c1cc(F)ccn1 [Example 5-1-505, N-[2-[5-amino-1-[6-(2-fluorophenoxy)-4-methylpyridin-3-yl]pyrazole-4-carbonyl]-5-methyl-1H-indol-6-yl]-4-fluoropyridine-2-sulfonamide] | 2.5 | 470 | 68
10 | Cc1ccnc(S(=O)(=O)Nc2cc3[nH]c(C(=O)c4cnn(-c5cnc(Oc6ccccc6F)cc5C)c4N)cc3cc2C)c1 [Example 5-1-506, N-[2-[5-amino-1-[6-(2-fluorophenoxy)-4-methylpyridin-3-yl]pyrazole-4-carbonyl]-5-methyl-1H-indol-6-yl]-4-rmethylpyridine-2-sulfonamide] | 3 | 500 | 99
11 | Cc1cccc(S(=O)(=O)Nc2cc3[nH]c(C(=O)c4cnn(-c5cnc(Oc6ccccc6F)cc5C)c4N)cc3cc2C)n1 [Example 5-1-507, N-[2-[5-amino-1-[6-(2-fluorophenoxy)-4-methylpyridin-3-yl]pyrazole-4-carbonyl]-5-methyl-1H-indol-6-yl]-6-methylpyridine-2-sulfonamide] | 2.8 | 480 | 92
12 | Cc1cc2cc(C(=O)c3cnn(-c4cnc(Oc5ccccc5F)cc4C)c3N)[nH]c2cc1NS(=O)(=O)c1cccc(Cl)n1 [Example 5-1-508, N-[2-[5-amino-1-[6-(2-fluorophenoxy)-4-methylpyridin-3-yl]pyrazole-4-carbonyl]-5-methyl-1H-indol-6-yl]-6-chloropyridine-2-sulfonamide] | 4 | 920 | 140
13 | Cc1cc2cc(C(=O)c3cnn(-c4cnc(Oc5ccccc5F)cc4C)c3N)[nH]c2cc1NS(=O)(=O)c1cc(Cl)ccn1 [Example 5-1-509, N-[2-[5-amino-1-[6-(2-fluorophenoxy)-4-methylpyridin-3-yl]pyrazole-4-carbonyl]-5-methyl-1H-indol-6-yl]-4-chloropyridine-2-sulfonamide] | 3.7 | 840 | 130
14 | COc1ccnc(S(=O)(=O)Nc2cc3[nH]c(C(=O)c4cnn(-c5ccc(Oc6ccccc6F)cc5C)c4N)cc3cc2C)c1 [Example 5-1-510, N-[2-[5-amino-1-[4-(2-fluorophenoxy)-2-methylphenyl]pyrazole-4-carbonyl]-5-methyl-1H-indol-6-yl]-4-methoxypyridine-2-sulfonamide] | 0.92 | 230 | 89
15 | COc1ccnc(S(=O)(=O)Nc2cc3[nH]c(C(=O)c4cnn(-c5cnc(Oc6c(F)cccc6F)cc5C)c4N)cc3cc2C)c1 [Example 5-1-511, N-[2-[5-amino-1-[6-(2,6-difluorophenoxy)-4-methylpyridin-3-yl]pyrazole-4-carbonyl]-5-methyl-1H-indol-6-yl]-4-methoxypyridine-2-sulfonamide] | 2.7 | 520 | 240
16 | COc1ccnc(S(=O)(=O)Nc2cc3[nH]c(C(=O)c4cnn(-c5ccc(Oc6ccccc6F)cc5C)c4N)cc3cc2F)c1 [Example 5-1-512, N-[2-[5-amino-1-[4-(2-fluorophenoxy)-2-methylphenyl]pyrazole-4-carbonyl]-5-fluoro-1H-indol-6-yl]-4-methoxypyridine-2-sulfonamide] | 1.2 | 250 | 33
17 | COc1ccnc(S(=O)(=O)Nc2cc3[nH]c(C(=O)c4cnn(-c5cnc(Oc6c(F)cccc6F)cc5C)c4N)cc3cc2F)c1 [Example 5-1-513, N-[2-[5-amino-1-[6-(2,6-difluorophenoxy)-4-methylpyridin-3-yl]pyrazole-4-carbonyl]-5-fluoro-1H-indol-6-yl]-4-methoxypyridine-2-sulfonamide] | 3.7 | 510 | 98
18 | COc1ccnc(S(=O)(=O)Nc2cc3[nH]c(C(=O)c4cnn(-c5cnc(Oc6ccccc6F)cc5C)c4N)cc3cc2F)c1 [Example 5-1-514, N-[2-[5-amino-1-[6-(2-fluorophenoxy)-4-methylpyridin-3-yl]pyrazole-4-carbonyl]-5-fluoro-1H-indol-6-yl]-4-methoxypyridine-2-sulfonamide] | 3.3 | 760 | 140
19 | Cc1cc2cc(C(=O)c3cnn(-c4ccc(Oc5ccccc5F)cc4C)c3N)[nH]c2cc1NS(=O)(=O)c1cccc(F)n1 [Example 5-1-515, N-[2-[5-amino-1-[4-(2-fluorophenoxy)-2-methylphenyl]pyrazole-4-carbonyl]-5-methyl-1H-indol-6-yl]-6-fluoropyridine-2-sulfonamide] | 2.4 | 280 | 59
20 | Cc1cc2cc(C(=O)c3cnn(-c4cnc(Oc5c(F)cccc5F)cc4C)c3N)[nH]c2cc1NS(=O)(=O)c1cccc(F)n1 [Example 5-1-516, N-[2-[5-amino-1-[6-(2,6-difluorophenoxy)-4-methylpyridin-3-yl]pyrazole-4-carbonyl]-5-methyl-1H-indol-6-yl]-6-fluoropyridine-2-sulfonamide] | 5.1 | 540 | 91
21 | Cc1cc(Oc2ccccc2F)ccc1-n1ncc(C(=O)c2cc3cc(F)c(NS(=O)(=O)c4cccc(F)n4)cc3[nH]2)c1N [Example 5-1-517, N-[2-[5-amino-1-[4-(2-fluorophenaxy)-2-methylphenyl]pyrazole-4-carbonyl]-5-fluoro-1H-indol-5-yl]-6-fluoropyridine-2-sulfonamide] | 2.1 | 300 | 34
22 | Cc1cc(Oc2c(F)cccc2F)ncc1-n1ncc(C(=O)c2cc3cc(F)c(NS(=O)(=O)c4cccc(F)n4)cc3[nH]2)c1N [Example 5-1-518, N-[2-[5-amino-1-[6-(2,6-difluorophenoxy)-4-methylpyridin-3-yl]pyrazole-4-carbonyl]-5-fluoro-1H-indol-6-yl]-6-fluoropyridine-2-sulfonamide] | 5.8 | 570 | 82
